In PMC9617638 (Journal of medicinal chemistry, 2019):
“And” between values parts separate entries of the source, which are not always exact repeats. Identical values can stand only once. “Also recorded” adds a separate entry of the source.

Assays:
[1] = Phase I metabolic stability in mouse liver microsomes; type: in vitro ADME; conditions: for phase I metabolic stability (in words): mouse liver microsomes, 60 min; for compound remaining: mouse microsomes fortified with NADPH, 60 min (1 h)
hERG = hERG (Homo sapiens, UniProt Q12809); assay: hERG current block; type: cell-based; conditions: hERG IC50 over DAT Ki
Sequence of hERG (Q12809 whole entry): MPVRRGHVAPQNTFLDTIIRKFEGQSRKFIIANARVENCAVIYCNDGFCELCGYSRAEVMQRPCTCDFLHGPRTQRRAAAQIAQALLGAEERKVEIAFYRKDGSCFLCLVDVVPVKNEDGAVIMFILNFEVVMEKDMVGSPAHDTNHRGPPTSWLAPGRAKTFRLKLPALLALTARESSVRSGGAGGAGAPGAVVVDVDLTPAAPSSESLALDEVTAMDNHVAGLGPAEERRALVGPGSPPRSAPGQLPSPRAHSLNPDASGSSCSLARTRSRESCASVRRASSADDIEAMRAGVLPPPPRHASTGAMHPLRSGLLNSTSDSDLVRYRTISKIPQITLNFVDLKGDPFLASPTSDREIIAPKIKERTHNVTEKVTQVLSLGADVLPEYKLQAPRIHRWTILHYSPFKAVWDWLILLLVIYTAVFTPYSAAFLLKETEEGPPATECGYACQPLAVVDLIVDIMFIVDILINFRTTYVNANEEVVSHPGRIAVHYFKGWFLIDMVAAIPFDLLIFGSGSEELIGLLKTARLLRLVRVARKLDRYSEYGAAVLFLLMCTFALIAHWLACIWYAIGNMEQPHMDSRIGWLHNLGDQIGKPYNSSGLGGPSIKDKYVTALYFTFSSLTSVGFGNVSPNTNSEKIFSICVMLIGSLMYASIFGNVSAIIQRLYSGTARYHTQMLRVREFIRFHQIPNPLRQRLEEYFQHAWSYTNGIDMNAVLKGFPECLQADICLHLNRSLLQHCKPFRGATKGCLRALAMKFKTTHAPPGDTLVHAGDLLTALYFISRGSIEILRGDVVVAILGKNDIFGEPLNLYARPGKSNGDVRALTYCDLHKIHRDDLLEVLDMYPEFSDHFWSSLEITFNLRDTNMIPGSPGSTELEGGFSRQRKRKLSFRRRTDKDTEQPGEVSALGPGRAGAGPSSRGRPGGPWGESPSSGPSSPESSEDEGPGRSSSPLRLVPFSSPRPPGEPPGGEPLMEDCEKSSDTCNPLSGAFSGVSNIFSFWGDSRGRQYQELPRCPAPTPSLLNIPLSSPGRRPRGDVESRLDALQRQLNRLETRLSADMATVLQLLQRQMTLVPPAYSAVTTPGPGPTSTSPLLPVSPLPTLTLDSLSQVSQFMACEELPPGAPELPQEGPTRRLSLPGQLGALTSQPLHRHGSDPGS

[2] = Off-target binding interactions; conditions: concentration of 100 nM
DAT = DAT (Rattus norvegicus, UniProt P23977); assay: DAT binding assay, [3H]WIN 35,428, rat striatum membranes; conditions: for DAT Ki values (in words): terminal piperazine amine changed to amide
Sequence of DAT (P23977 whole entry): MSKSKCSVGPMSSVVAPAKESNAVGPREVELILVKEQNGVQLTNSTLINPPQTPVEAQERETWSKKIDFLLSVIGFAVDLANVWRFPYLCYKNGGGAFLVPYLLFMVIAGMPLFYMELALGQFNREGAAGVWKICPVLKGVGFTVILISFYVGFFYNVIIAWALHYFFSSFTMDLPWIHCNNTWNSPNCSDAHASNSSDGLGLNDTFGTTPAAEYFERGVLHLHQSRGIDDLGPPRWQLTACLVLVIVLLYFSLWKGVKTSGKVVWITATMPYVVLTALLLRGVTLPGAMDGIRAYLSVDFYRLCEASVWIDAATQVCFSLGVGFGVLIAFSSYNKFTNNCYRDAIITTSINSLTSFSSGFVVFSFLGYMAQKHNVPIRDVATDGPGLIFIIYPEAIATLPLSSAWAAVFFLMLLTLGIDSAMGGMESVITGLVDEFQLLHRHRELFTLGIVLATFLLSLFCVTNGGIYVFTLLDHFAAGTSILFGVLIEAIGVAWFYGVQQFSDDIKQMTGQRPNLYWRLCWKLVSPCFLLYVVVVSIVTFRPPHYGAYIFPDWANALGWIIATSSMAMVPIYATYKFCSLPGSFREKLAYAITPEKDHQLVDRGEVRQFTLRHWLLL

SERT = SERT (Rattus norvegicus, UniProt P31652); assay: SERT binding assay, [3H]citalopram, rat brain stem membranes; conditions: DAT versus SERT Ki
Sequence of SERT (P31652 whole entry): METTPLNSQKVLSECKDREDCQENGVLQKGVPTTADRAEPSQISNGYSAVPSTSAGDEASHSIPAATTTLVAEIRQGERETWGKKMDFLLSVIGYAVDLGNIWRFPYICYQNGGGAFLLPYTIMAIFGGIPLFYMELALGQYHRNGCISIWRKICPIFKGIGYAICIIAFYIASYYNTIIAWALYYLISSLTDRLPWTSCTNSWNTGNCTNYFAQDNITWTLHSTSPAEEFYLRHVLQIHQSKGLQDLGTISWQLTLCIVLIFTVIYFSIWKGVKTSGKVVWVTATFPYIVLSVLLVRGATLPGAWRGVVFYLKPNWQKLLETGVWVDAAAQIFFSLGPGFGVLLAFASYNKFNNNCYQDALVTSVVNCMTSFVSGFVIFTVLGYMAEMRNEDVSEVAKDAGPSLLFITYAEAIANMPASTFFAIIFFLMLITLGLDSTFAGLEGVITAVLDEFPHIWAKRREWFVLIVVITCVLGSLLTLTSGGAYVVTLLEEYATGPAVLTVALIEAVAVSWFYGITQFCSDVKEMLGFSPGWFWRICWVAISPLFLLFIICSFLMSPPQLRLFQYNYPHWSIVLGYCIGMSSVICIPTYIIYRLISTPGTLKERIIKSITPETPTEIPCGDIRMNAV

σ1 receptor = σ1 receptor (Cavia porcellus, UniProt Q60492); assay: σ1 receptor binding assay, [3H]; set-up: species or system guinea pig; conditions: for selectivity for σ1R over DAT and SERT (in words): σ1R versus monoamine transporters
Sequence of σ1 receptor (Q60492 whole entry): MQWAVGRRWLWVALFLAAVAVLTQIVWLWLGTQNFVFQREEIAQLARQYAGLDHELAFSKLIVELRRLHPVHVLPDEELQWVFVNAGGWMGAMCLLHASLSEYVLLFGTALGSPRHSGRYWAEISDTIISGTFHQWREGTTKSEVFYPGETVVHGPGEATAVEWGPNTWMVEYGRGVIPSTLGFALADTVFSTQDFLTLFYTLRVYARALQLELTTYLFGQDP

mouse locomotion = assay: Locomotor activity in mice; type: in vivo; conditions: i.p., 2 h session, cocaine 3-30 mg/kg, 14a 1-30 mg/kg, 14b/14c 1-10 mg/kg
[3] = Metabolic stability in human liver microsomes; type: in vitro ADME
DAT Y156F mutant = DAT Y156F mutant (Homo sapiens, UniProt Q01959, Y156F); type: binding; conditions: read-out: Y156F Ki, COS7 cells, mean [SE interval]
Sequence of DAT Y156F mutant (Q01959 whole entry Y156F): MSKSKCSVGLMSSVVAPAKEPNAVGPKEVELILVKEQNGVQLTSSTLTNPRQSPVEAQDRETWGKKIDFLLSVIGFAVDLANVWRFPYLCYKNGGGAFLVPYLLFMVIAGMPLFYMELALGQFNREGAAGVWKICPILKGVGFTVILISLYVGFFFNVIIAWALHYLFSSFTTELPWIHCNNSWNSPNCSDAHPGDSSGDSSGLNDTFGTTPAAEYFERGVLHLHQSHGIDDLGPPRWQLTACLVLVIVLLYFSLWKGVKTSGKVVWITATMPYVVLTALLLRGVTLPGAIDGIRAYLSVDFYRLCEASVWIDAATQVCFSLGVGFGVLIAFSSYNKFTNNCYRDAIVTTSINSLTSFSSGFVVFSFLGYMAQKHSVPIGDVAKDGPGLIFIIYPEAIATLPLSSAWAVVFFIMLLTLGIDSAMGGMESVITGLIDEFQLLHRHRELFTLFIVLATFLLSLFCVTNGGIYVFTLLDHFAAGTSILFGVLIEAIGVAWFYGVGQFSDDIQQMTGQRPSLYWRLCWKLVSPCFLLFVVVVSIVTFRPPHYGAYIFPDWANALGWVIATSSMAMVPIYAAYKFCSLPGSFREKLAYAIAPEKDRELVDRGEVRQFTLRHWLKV

C[C@@H](O)CN1CCN(CC[S+]([O-])C(c2ccc(F)cc2)c2ccc(F)cc2)CC1 (stereo partly drawn) [12b, (R)-1-(4-(2-((Bis(4-fluorophenyl)methyl)sulfinyl)ethyl)piperazin-1-yl)propan-2-ol]
phase I metabolic stability (in words) [1]: exceptional and similar metabolic stability

CC(O)CN1CCN(CCSC(c2ccc(F)cc2)c2ccc(F)cc2)CC1 (stereo not shown) [3a, reference compound]
hERG/DAT affinity ratio (hERG): 3

C[C@H](O)CN1CCN(CC[S+]([O-])C(c2ccc(F)cc2)c2ccc(F)cc2)CC1 (stereo partly drawn) [12a, (S)-1-(4-(2-((Bis(4-fluorophenyl)methyl)sulfinyl)ethyl)piperazin-1-yl)propan-2-ol]
phase I metabolic stability (in words) [1]: exceptional and similar metabolic stability

[O-][S+](CCCN1CCN(CCCc2ccccc2)CC1)C(c1ccc(F)cc1)c1ccc(F)cc1 (stereo not shown) [12c, 1-(3-((Bis(4-fluorophenyl)methyl)sulfinyl)propyl)-4-(3-phenylpropyl)piperazine]
phase I metabolic stability (in words) [1]: almost no compound present after 60 min

CC(O)CN1CCN(CC[S+]([O-])C(c2ccc(F)cc2)c2ccc(F)cc2)CC1 (stereo not shown) [3b, 1-(4-(2-((bis(4-fluorophenyl)methyl)sulfinyl)ethyl)-piperazin-1-yl)-propan-2-ol, reference compound]
off-target interactions [2]: no significant interactions

1-(4-(2-((Bis(4-fluorophenyl)methyl)thio)ethyl)piperazin-1-yl)-2-phenylethan-1-one [8f]
DAT Ki values (in words) (DAT): low micromolar range | selectivity for DAT over SERT (in words) (SERT): equivalent | selectivity for σ1R over DAT and SERT (in words) (σ1 receptor): σ1R selective

CC(O)CN1[C@H](C)CN(CCSC(c2ccc(F)cc2)c2ccc(F)cc2)C[C@@H]1C (stereo partly drawn) [14a, 1-(4-(2-((Bis(4-fluorophenyl)methyl)thio)ethyl)-2,6-cis-dimethylpiperazin-1-yl)propan-2-ol]
locomotor (ambulatory) activity, maximum distance traveled in 30 min (mouse locomotion): not significantly different than vehicle; also recorded: only moderate locomotor stimulation | higher binding affinity at σ1 receptors than at DAT (σ1 receptor; σ1 versus DAT): ~ 4 fold | metabolic stability (in words) [3]: moderate metabolic stability | Ki (DAT Y156F mutant): 269 nM | off-target interactions [2]: no significant interactions

CC(=O)CN1CCN(CCSC(c2ccc(F)cc2)c2ccc(F)cc2)CC1 [8g, 1-(4-(2-((Bis(4-fluorophenyl)methyl)thio)ethyl)piperazin-1-yl)propan-2-one]
decrease of DAT affinity compared to 3a (DAT; 2-propanol oxidised to 2-propanone): ~ 5 fold | selectivity for σ1R over DAT and SERT (in words) (σ1 receptor): σ1R selective

O[C@@H](Cc1ccccc1)CN1CCN(CCSC(c2ccc(F)cc2)c2ccc(F)cc2)CC1 [8d, (S)-1-(4-(2-((Bis(4-fluorophenyl)methyl)thio)ethyl)piperazin-1-yl)-3-phenylpropan-2-ol]
phase I metabolic stability (in words) [1]: almost no compound present after 60 min

C[C@@H]1CN(CC[S+]([O-])C(c2ccc(F)cc2)c2ccc(F)cc2)C[C@H](C)N1CC(O)Cc1ccccc1 (stereo partly drawn) [15b, 1-(4-(2-((Bis(4-fluorophenyl)methyl)sulfinyl)ethyl)-2,6-cis-dimethylpiperazin-1-yl)-3-phenylpropan-2-ol]
phase I metabolic stability (in words) [1]: almost no compound present after 60 min | off-target interactions [2]: no significant interactions

OC(Cc1ccc(F)cc1)CN1CCN(CCSC(c2ccc(F)cc2)c2ccc(F)cc2)CC1 (stereo not shown) [8a, 1-(4-(2-((Bis(4-fluorophenyl)methyl)thio)ethyl)piperazin-1-yl)-3-(4-fluorophenyl)propan-2-ol]
phase I metabolic stability (in words) [1]: almost no compound present after 60 min

O[C@H](Cc1ccccc1)CN1CCN(CCSC(c2ccc(F)cc2)c2ccc(F)cc2)CC1 [8e, (R)-1-(4-(2-((Bis(4-fluorophenyl)methyl)thio)ethyl)piperazin-1-yl)-3-phenylpropan-2-ol]
phase I metabolic stability (in words) [1]: almost no compound present after 60 min

CCC(=O)N1CCN(CCSC(c2ccc(F)cc2)c2ccc(F)cc2)CC1 [11d, 1-(4-(2-((Bis(4-fluorophenyl)methyl)thio)ethyl)piperazin-1-yl)propan-1-one]
DAT Ki values (in words) (DAT): low micromolar range | selectivity for DAT over SERT (in words) (SERT): equivalent | selectivity for σ1R over DAT and SERT (in words) (σ1 receptor): σ1R selective

CC(O)CN1CCC2(CCN(CC[S+]([O-])C(c3ccc(F)cc3)c3ccc(F)cc3)CC2)C1 (stereo not shown) [compound 19, 1-(8-(2-((Bis(4-fluorophenyl)methyl)sulfinyl)ethyl)-2,8-diazaspiro[4.5]decan-2-yl)propan-2-ol]
selectivity for DAT over SERT (in words) (SERT): not selective for DAT over SERT; also recorded: equivalent | selectivity for σ1R over DAT and SERT (in words) (σ1 receptor): binding preference for σ1R

CC(O)CN1[C@H](C)CN(CC[S+]([O-])C(c2ccc(F)cc2)c2ccc(F)cc2)C[C@@H]1C (stereo partly drawn) [15a, 1-(4-(2-((Bis(4-fluorophenyl)methyl)sulfinyl)ethyl)-2,6-cis-dimethylpiperazin-1-yl)propan-2-ol]
compound remaining [1]: 30–44% | hERG/DAT affinity ratio (hERG): 30 | off-target interactions [2]: no significant interactions

OC(CN1CCC2(CCN(CCSC(c3ccc(F)cc3)c3ccc(F)cc3)CC2)C1)c1ccccc1 (stereo not shown) [18b, 2-(8-(2-((Bis(4-fluorophenyl)methyl)thio)ethyl)-2,8-diazaspiro[4.5]decan-2-yl)-1-phenylethan-1-ol]
compound remaining [1]: 30–44% and 44% | selectivity for DAT over SERT (in words) (SERT): not selective for DAT over SERT; also recorded: equivalent | selectivity for σ1R over DAT and SERT (in words) (σ1 receptor): binding preference for σ1R
